Data: US8927484B2, “Antiviral compounds” (Gilead Sciences, Inc., priority 2009, dated 2015)

System: Replicon cells harboring H77 (genotype 1a) or Con1 (genotype 1b) HCV RNA and Renilla luciferase reporter
Assay: High Throughput Replicon Assay (HTBS)
Assay type: cell-based
Conditions: 72 h, read-out: INH @1 μM (Mean)
Experimental: High Throughput Replicon Assay (HTBS)
Replicon cells harboring H77 (genotype 1a) or Con1 (genotype 1b) HCV RNA and Renilla luciferase reporter were seeded in 384-well black plates at a density of 1.6×10^3 cells per well in 90 μl of DMEM culture medium, excluding G-418. Compounds were serially diluted in 100% DMSO and added to cells at a 1:225 dilution, achieving a final concentration of 0.44% DMSO in a total volume of 90 μL with a Biotek uFlow Workstation. Cell plates were incubated at 37° C. with 5% CO2 for 3 days, after which culture media were removed and cells were assayed for luciferase activity as a marker for replication level. Luciferase expression was measured using Dual-Glo luciferase assay reagents (Promega, Madison, Wis.). Briefly, 20 μL of Dual-Glo luciferase buffer was added to lyse the cells for 10 min and subsequently 20 μL of a diluted Dual-Glo Stop & Glo substrate (1:100) was added to each well. Luminescence signal was measured on a Perkin Elmer Envision Plate Reader after incubation for 10 minute. Luciferase levels were converted into percentages relative to the untreated controls (defined as 100%) and data were fit to the logistic dose response equation y=a/(1+(x/b)^c) using XLFit4 software (IDBS, Emeryville, Calif.). EC50 values were calculated from the resulting equations.

Structure (SMILES) | inhibition at 1 µM [%]
C=C[C@@H]1C[C@]1(NC(=O)[C@@H]1C[C@@H](Oc2cc(-c3csc(C(C)C)n3)nc3c(Cl)c(OC)ccc23)[C@H]2CN(C(=O)OC(C)(C)C)[C@H](C(C)(C)C)C(=O)N21)C(=O)NS(=O)(=O)C1CC1 [Example 2] | > 99
C=C[C@@H]1C[C@]1(NC(=O)[C@@H]1C[C@@H](Oc2cc(-c3csc(C(C)C)n3)nc3c(Cl)c(OC)ccc23)[C@H]2CN(C(=O)OC(C)(C)C)[C@H](C(C)(C)C)C(=O)N21)C(=O)NS(=O)(=O)C1(C)CC1 [Example 4] | > 99
CC[C@@H]1C[C@]1(NC(=O)[C@@H]1C[C@@H](Oc2cc(-c3nc(C(C)C)cs3)nc3c(Cl)c(OC)ccc23)[C@H]2CN(C(=O)OC(C)(C)C)[C@H](C(C)C)C(=O)N21)C(=O)NS(=O)(=O)C1CC1 [Example 6] | > 99
C=C[C@@H]1C[C@]1(NC(=O)[C@@H]1C[C@@H](Oc2cc(-c3nc(C(C)C)cs3)nc3c(Cl)c(OC)ccc23)[C@H]2CN(C(=O)OC(C)(C)C)[C@H](C(C)C)C(=O)N21)C(=O)NS(=O)(=O)C1CC1 [Example 8] | > 99
C=C[C@@H]1C[C@]1(NC(=O)[C@@H]1C[C@@H](Oc2cc(-c3nc(C(C)C)cs3)nc3c(Cl)c(OCCN4CCOCC4)ccc23)[C@H]2CN(C(=O)OC(C)(C)C)[C@H](C(C)C)C(=O)N21)C(=O)NS(=O)(=O)C1CC1 [Example 9] | > 99
CC[C@@H]1C[C@]1(NC(=O)[C@@H]1C[C@@H](Oc2cc(-c3nc(C(C)C)cs3)nc3c(Cl)c(OCCN4CCOCC4)ccc23)[C@H]2CN(C(=O)OC(C)(C)C)[C@H](C(C)C)C(=O)N21)C(=O)NS(=O)(=O)C1CC1 [Example 11] | > 50
CC[C@@H]1C[C@]1(NC(=O)[C@@H]1C[C@@H](Oc2cc(-c3nc(C(C)C)cs3)nc3c(Cl)c(OCC(OC)OC)ccc23)[C@H]2CN(C(=O)OC(C)(C)C)[C@H](C(C)C)C(=O)N21)C(=O)NS(=O)(=O)C1CC1 [Example 13] | > 99
C=C[C@@H]1C[C@]1(NC(=O)[C@@H]1C[C@@H](Oc2cc(-c3nc(C(C)C)cs3)nc3c(Cl)c(OCCN4CCOCC4)ccc23)[C@H]2CN(S(C)(=O)=O)[C@H](C(C)C)C(=O)N21)C(=O)NS(=O)(=O)C1CC1 [Example 16] | > 25
C=C[C@@H]1C[C@]1(NC(=O)[C@@H]1C[C@@H](Oc2cc(-c3nc(C(C)C)cs3)nc3c(Cl)c(OCCN4CCOCC4)ccc23)[C@H]2CN(C(=O)NC(C)(C)C)[C@H](C(C)C)C(=O)N21)C(=O)NS(=O)(=O)C1CC1 [Example 18] | > 35
C=C[C@@H]1C[C@]1(NC(=O)[C@@H]1C[C@@H](Oc2cc(-c3nc(C(C)C)cs3)nc3c(Cl)c(OCCN4CCOCC4)ccc23)[C@H]2CN(C(=O)CC(C)(C)C)[C@H](C(C)C)C(=O)N21)C(=O)NS(=O)(=O)C1CC1 [Example 19] | > 55
C=C[C@@H]1C[C@]1(NC(=O)[C@@H]1C[C@@H](Oc2cc(-c3nc(C(C)C)cs3)nc3c(Cl)c(OCCN4CCOCC4)ccc23)[C@H]2CN(C(=O)OC3CCCC3)[C@H](C(C)C)C(=O)N21)C(=O)NS(=O)(=O)C1CC1 [Example 20] | > 90
C=C[C@@H]1C[C@]1(NC(=O)[C@@H]1C[C@@H](Oc2cc(-c3cccc(C(C)C)n3)nc3c(Cl)c(OC)ccc23)[C@H]2CN(C(=O)OC(C)(C)C)[C@H](C(C)C)C(=O)N21)C(=O)NS(=O)(=O)C1CC1 [Example 21] | > 99
C=C[C@@H]1C[C@]1(NC(=O)[C@@H]1C[C@@H](Oc2cc(-c3nc(C(C)C)cs3)nc3c(Cl)c(OCCOC)ccc23)[C@H]2CN(C(=O)OC(C)(C)C)[C@H](C(C)(C)C)C(=O)N21)C(=O)NS(=O)(=O)C1CC1 [Example 22] | > 99
C=C[C@@H]1C[C@]1(NC(=O)[C@@H]1C[C@@H](Oc2cc(-c3nc(C(C)C)cs3)nc3c(C)c(OC)ccc23)[C@H]2CN(C(=O)OC(C)(C)C)[C@H](C(C)(C)C)C(=O)N21)C(=O)NS(=O)(=O)C1CC1 [Example 24] | > 99
C=C[C@@H]1C[C@]1(NC(=O)[C@@H]1C[C@@H](Oc2cc(-c3nc(C(C)C)cs3)nc3c(Cl)c(OCCN4CCOCC4)ccc23)[C@H]2CN(C(=O)OC(C)(C)C)[C@H](C(C)(C)C)C(=O)N21)C(=O)NS(=O)(=O)C1CC1 [Example 26] | > 99
C=C[C@@H]1C[C@]1(NC(=O)[C@@H]1C[C@@H](Oc2cc(-n3ccc(C(C)C)n3)nc3c(Cl)c(OCCN4CCOCC4)ccc23)[C@H]2CN(C(=O)OC(C)(C)C)[C@H](C(C)(C)C)C(=O)N21)C(=O)NS(=O)(=O)C1CC1 [Example 28] | > 99
C=C[C@@H]1C[C@]1(NC(=O)[C@@H]1C[C@@H](Oc2cc(-n3ccc(C(C)C)n3)nc3c(Cl)c(OCCN4CCOCC4)ccc23)[C@H]2CN(C(=O)OC(C)(C)C)[C@H](C(C)C)C(=O)N21)C(=O)NS(=O)(=O)C1CC1 [Example 30] | > 35
C=C[C@@H]1C[C@]1(NC(=O)[C@@H]1C[C@@H](Oc2cc(-c3nc(C(C)C)cs3)nc3c(Cl)c(OCCN4CCOCC4)ccc23)[C@H]2CN(C(=O)OC(C)(C)C)[C@H](C(C)(C)OC)C(=O)N21)C(=O)NS(=O)(=O)C1CC1 [Example 34] | > 95
C=C[C@@H]1C[C@]1(NC(=O)[C@@H]1C[C@@H](Oc2cc(-c3nc(C(C)C)cs3)nc3c(Cl)c(OCCN4CCOCC4)ccc23)[C@H]2CN(C(=O)OC(C)(C)C)C(=C(C)C)C(=O)N21)C(=O)NS(=O)(=O)C1CC1 [Example 35] | > 35
CC[C@@H]1C[C@]1(NC(=O)[C@@H]1C[C@@H](Oc2cc(-c3nc(C(C)C)cs3)nc3c(Cl)c(OCCN4CCOCC4)ccc23)[C@H]2CN(C(=O)OC(C)(C)C)[C@H]([C@H](C)CC)C(=O)N21)C(=O)NS(=O)(=O)C1CC1 [Example 36] | > 90
C=C[C@@H]1C[C@]1(NC(=O)[C@@H]1C[C@@H](Oc2cc(-c3nc(C(C)C)cs3)nc3c(C)c(OC)ccc23)[C@H]2CN(C(=O)OC(C)(C)C)C([C@H](C)CC)C(=O)N21)C(=O)NS(=O)(=O)C1CC1 (some centres unmarked) [Example 38] | > 95
C=C[C@@H]1C[C@]1(NC(=O)[C@@H]1C[C@@H](Oc2cc(-c3nc(C(C)C)cs3)nc3c(Cl)c(OCCN4CCOCC4)ccc23)[C@H]2CN(C(=O)OC(C)(C)C)[C@H]([C@@H](C)CC)C(=O)N21)C(=O)NS(=O)(=O)C1CC1 [Example 40] | > 75
CC[C@@H]1C[C@]1(NC(=O)[C@@H]1C[C@@H](Oc2cc(-c3nc(C(C)C)cs3)nc3c(Cl)c(OCCN4CCOCC4)ccc23)[C@H]2CN(C(=O)OC(C)(C)C)[C@H]([C@@H](C)CC)C(=O)N21)C(=O)NS(=O)(=O)C1CC1 [Example 42] | > 95
C=C[C@@H]1C[C@]1(NC(=O)[C@@H]1C[C@@H](Oc2cc(-c3cccc(C(C)C)n3)nc3c(Cl)c(OC)ccc23)[C@H]2CN(C(=O)OC(C)(C)C)[C@H](C(C)(C)C)C(=O)N21)C(=O)NS(=O)(=O)C1CC1 [Example 44] | > 99
C=C[C@@H]1C[C@]1(NC(=O)[C@@H]1C[C@@H](Oc2cc(-c3nc(C(C)C)cs3)nc3c(Cl)c(OCCN4CCOCC4)ccc23)[C@H]2CN(C(=O)OC(C)(C)C)[C@H](C(C)C)C(=O)N21)C(=O)NS(=O)(=O)C1(C)CC1 [Example 46] | > 99
C=C[C@@H]1C[C@]1(NC(=O)[C@@H]1C[C@@H](Oc2cc(-c3nc(C(C)C)cs3)nc3c(Cl)c(OCCN4CCOCC4)ccc23)[C@H]2CN(C(=O)OC(C)(C)C)[C@H]([C@H](C)CC)C(=O)N21)C(=O)NS(=O)(=O)C1CC1 [Example 49] | > 95
